Experimental data published in US20250051376A1, “BENZIMIDAZOLE DERIVATIVE COMPOUNDS AND USE THEREOF” (PHARMGEN SCIENCE, INC., priority 2021, published 2025).

Columns and labels:
gastric acid secretion [1] = experiment: Gastric acid releasing suppression ability test by oral administration (pylorus-ligated, histamine-stimulated rats); assay type: in vivo
Protocol: A week before the test, test animals (rats) were purchased and acclimatized. After acclimatization, food was removed the day before the test and fasting was performed for 24 hours using a fasting plate. The weight of each individual was measured, weight ranking was sequentially assigned to each group, and the average value of each group was randomly distributed so that the average value was evenly distributed. Test material (the embodiment compound and comparison compound) were used by dissolving them in 0.5% methylcellulose solution, and tegoprazan was used as a comparative compound. The prepared test material was orally administered to test animals at an amount of 3 mg/5 ml/kg, and 30 minutes later, inhalation anesthesia (3% isoflurane) was performed for 3 minutes using an inhalation anesthesia machine. After making a minimal incision in the upper abdomen about 1 cm below the left side of the sternum of an anesthetized test animal, the stomach was exposed, and the pyloric ring, which is the connection between the stomach and the duodenum, was ligated. The stomach and duodenum were restored to their original positions, and the laparotomy site was sutured well with surgical staplers. Histamine (7.5 mg/2.5 mL/head) was slowly administered subcutaneously to the back of the neck to promote gastric acid secretion. 3 hours after the surgery, the experimental animals were anesthetized with isoflurane and the stomach was removed through laparotomy. Gastric fluid obtained from the extracted stomach was transferred to a 15 ml conical tube, centrifuged at 5,000 rpm for 10 minutes, and only the supernatant was separated. 0.2 mL of the separated gastric fluid was diluted in 24.8 mL of distilled water to make a total dilution of 25 mL, and then 0.01N NaOH was added in small amounts to titrate until the pH reached 7. Efficacy was evaluated by calculating total acidity by combining the amount of gastric fluid and the amount of 0.01N NaOH required for titration.

gastric acid secretion [2] = experiment: Gastric acid releasing suppression ability test by administration in the duodenum (pylorus-ligated, histamine-stimulated rats); assay type: in vivo; details: for gastric acid releasing suppression ability (% INH, Mean ± SD): intraduodenal 1 mg/5 ml/kg in 0.5% methylcellulose, pylorus ligation, histamine s.c., gastric fluid collected 3 hours after surgery
Protocol: A week before the test, test animals (rats) were purchased and acclimatized. After acclimatization, food was removed the day before the test and fasting was performed for 24 hours using a fasting plate. The weight of each individual was measured, weight ranking was sequentially assigned to each group, and the average value of each group was randomly distributed so that the average value was evenly distributed. Test material (the embodiment compound and comparison compound) were used by dissolving them in 0.5% methylcellulose solution, and tegoprazan was used as a comparative compound. Experimental animals were subjected to inhalation anesthesia (3% isoflurane) for 3 minutes using an inhalation anesthesia machine. After making a minimal incision in the upper abdomen about 1 cm below the left side of the sternum of an anesthetized test animal, the stomach was exposed, and the pyloric ring, which is the connection between the stomach and the duodenum, was ligated. The prepared drug was administered into the duodenum in an amount of 1 mg/5 ml/kg, the stomach and duodenum were restored to their original positions, and the laparotomy site was sutured well with a surgical stapler. Histamine (7.5 mg/2.5 mL/head) was slowly administered subcutaneously to the back of the neck to promote gastric acid secretion. 3 hours after the surgery, the experimental animals were anesthetized with isoflurane and the stomach was removed through laparotomy. Gastric fluid obtained from the extracted stomach was transferred to a 15 ml conical tube, centrifuged at 5,000 rpm for 10 minutes, and only the supernatant was separated. 0.2 mL of the separated gastric fluid was diluted in 24.8 mL of distilled water to make a total dilution of 25 mL, and then 0.01N NaOH was added in small amounts to titrate until the pH reached 7. Efficacy was evaluated by calculating total acidity by combining the amount of gastric fluid and the amount of 0.01N NaOH required for titration.

physchem = details: pH 6.8, aqueous buffer, thermodynamic from solid
[3] = rats, oral 3 mg/5 ml/kg in 0.5% methylcellulose, pylorus ligation 30 min after dosing, histamine s.c., gastric fluid collected 3 hours after surgery

improved water solubility (pH 6.8) compared to the comparative compound | solubility at 31 min (physchem) | Molecule | gastric acid releasing suppression ability (% INH, Mean ± SD) (gastric acid secretion [1]; [3]) | gastric acid releasing suppression ability (% INH, Mean ± SD) (gastric acid secretion [2]) | gastric acid releasing suppression ability in the gastric acid secretion animal model (in words) (gastric acid secretion [1]; rats, oral 3 mg/5 ml/kg) | gastric acid releasing suppression ability (% INH, Mean ± SD) (gastric acid secretion [1]; rat, in vivo) | gastric acid releasing suppression ability in the gastric acid secretion animal model (in words) (gastric acid secretion [1]; rat, in vivo, po) | ability to inhibit gastric acid secretion compared to the comparative compound (in words) (gastric acid secretion [2]; drug administered to the duodenum with a neutral pH, 1 mg/5 ml/kg)
 |  | Cc1nc2cc(C(=O)N(C)C)cc(O[C@H]3CCOc4cc(F)cc(F)c43)c2[nH]1 [Comparison compound, tegoprazan, reference compound] | 100 ± 0.0 % INH | 29.8 ± 9.1 % INH |  |  |  | 
256 times | 5120 µg/mL | Cc1nc2c(O[C@H]3CCOc4cc(F)cc(F)c43)cc(C(=O)N(C)C)cc2n1COP(=O)(OC(C)(C)C)OC(C)(C)C [Embodiment 2, (S)-di-tert-butyl ((4-((5,7-difluorochroman-4-yl)oxy)-6-(dimethylcarbamoyl)-2-methyl-1H-benzo[d]imidazol-1-yl)methyl) phosphate] | 26.8 ± 9.2 % INH |  |  |  |  | 
128 times | 2560 µg/mL | Cc1nc2c(O[C@H]3CCOc4cc(F)cc(F)c43)cc(C(=O)N(C)C)cc2n1COP(=O)(O)OC(C)(C)C [Embodiment 3, tert-butyl ((4-(((S)-5,7-difluorochroman-4-yl)oxy)-6-(dimethylcarbamoyl)-2-methyl-1H-benzo (d)imidazol-1-yl)methyl) hydrogen phosphate] | 23.9 ± 3.3 % INH |  |  |  |  | 
128 times | 2560 µg/mL | Cc1nc2c(O[C@H]3CCOc4cc(F)cc(F)c43)cc(C(=O)N(C)C)cc2n1COP(=O)(O)O [Embodiment 4, (S)-(4-((5,7-difluorochroman-4-yl)oxy)-6-(dimethylcarbamoyl)-2-methyl-1H-benzo[d]imidazol-1-yl)methyl dihydrogen phosphate] | 100.0 ± 0.0 % INH |  | powerful gastric acid releasing suppression ability |  |  | 
 |  | sodium(S)-(4-((5,7-difluorochroman-4-yl)oxy)-6-(dimethylcarbamoyl)-2-methyl-1H-benzo (d) imidazol-1-yl)methyl phosphate) [Embodiment 6] |  | 43.7 ± 8.7 % INH |  | 92.8 ± 4.8 % INH | powerful gastric acid releasing suppression ability | improved ability to inhibit gastric acid secretion compared to the comparative compound
 |  | sodium(S)-tert-butyl ((4-((5,7-difluorochroman-4-yl)oxy)-6-(dimethylcarbamoyl)-2-methyl-1H-benzo (d) imidazol-1-yl)methyl) phosphate) [Embodiment 5] |  |  |  | 12.7 ± 10.9 % INH |  | 
